Data set [1] addresses T1, Neuromedin-K receptor (Homo sapiens, UniProt P29371).
T1 sequence (P29371 whole entry): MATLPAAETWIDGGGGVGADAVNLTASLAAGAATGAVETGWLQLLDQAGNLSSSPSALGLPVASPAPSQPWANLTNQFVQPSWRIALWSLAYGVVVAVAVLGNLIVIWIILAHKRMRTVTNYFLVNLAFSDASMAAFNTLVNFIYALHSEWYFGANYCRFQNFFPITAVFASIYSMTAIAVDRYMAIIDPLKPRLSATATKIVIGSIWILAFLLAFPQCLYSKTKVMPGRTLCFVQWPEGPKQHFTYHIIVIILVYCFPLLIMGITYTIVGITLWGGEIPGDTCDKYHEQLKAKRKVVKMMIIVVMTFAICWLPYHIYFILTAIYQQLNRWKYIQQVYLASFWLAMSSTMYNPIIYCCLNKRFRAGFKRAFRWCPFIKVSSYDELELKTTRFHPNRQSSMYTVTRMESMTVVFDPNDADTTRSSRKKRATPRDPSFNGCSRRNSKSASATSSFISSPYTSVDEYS
Description: Displacement of [3H]Lu AE93103 from human NK3 receptor expressed in BHK cells. Format: cell-based. On the technique in general: In a radioligand displacement assay an active substance lowers the binding of a labelled ligand.

Data set [2] relates to Liver microsomes. Put plainly: Intrinsic clearance in human liver microsomes. Type of data set: ADME, Microsome. On the technique in general: Liver microsomes are a subcellular fraction often used to study metabolism.
Data set [3] can be described thus: Apparent permeability of the compound in human Caco2 cells. Format: ADME, cell-based. The note with it: caco-2. On the technique in general: Caco-2 monolayers are a common model of the intestinal barrier.
For data set [4], the system named is Caco-2. Put plainly: Efflux ratio of permeability from […] in human Caco2 cells. Type of data set: ADME, cell-based.

The values below come from ChEMBL document CHEMBL1681655, “Identification of a new series of non-peptidic NK3 receptor antagonists” (Bioorg Med Chem Lett, 2011).

In the case of `CC(=O)NC1(c2ccccc2)CCN(C[C@H]2C[C@]2(C(=O)N(C)Cc2ccccc2)c2ccc(Cl)c(Cl)c2)CC1`, affinity in data set [1] was put at a Ki of 83 nM.

For `CC(=O)NC1(c2ccccc2)CCN(C[C@@H]2C[C@@]2(C(=O)N(C)Cc2ccc(F)cc2)c2ccc(Cl)c(Cl)c2)CC1`, in data set [1], the Ki (commonly a measure of affinity in units of concentration, obtained from inhibition or displacement) came out at 5.8 nM.

For `CC(=O)NC1(c2ccccc2)CCN(C[C@@H]2C[C@@]2(C(=O)N(C)Cc2ccc(F)cc2)c2ccc(F)cc2)CC1`, the Ki in data set [1] was found to be 67 nM.

`CC(=O)NC1(c2ccccc2)CCN(C[C@@H]2C[C@@]2(C(=O)N(C)Cc2ccc(F)cc2)c2ccc(Cl)cc2)CC1`: the Ki in data set [1] came to 36 nM.

In the case of `CC(=O)NC1(c2ccccc2)CCN(C[C@@H]2C[C@@]2(C(=O)N(C)Cc2ccc(F)cc2)c2ccc(C)cc2)CC1`, the Ki in data set [1] was 37 nM.

Turning to `COc1ccc([C@]2(C(=O)N(C)Cc3ccc(F)cc3)C[C@H]2CN2CCC(NC(C)=O)(c3ccccc3)CC2)cc1`, the affinity in data set [1], expressed as Ki, was 350 nM.

Consider `CC(=O)NC1(c2ccccc2)CCN(C[C@@H]2C[C@@]2(C(=O)N(C)Cc2ccc(F)cc2)c2ccc(C(F)(F)F)cc2)CC1`, for which the Ki in data set [1] was found to be 1000 nM.

In the case of `CC(=O)NC1(c2ccccc2)CCN(C[C@@H]2C[C@@]2(C(=O)N(C)Cc2ccc(F)cc2)c2ccc(C#N)cc2)CC1`, in data set [1], the Ki worked out at 270 nM.

Take `CC(=O)NC1(c2ccccc2)CCN(C[C@@H]2C[C@@]2(C(=O)N(C)Cc2ccc(F)cc2)c2cccc(F)c2)CC1`: the Ki in data set [1] is 140 nM.

Molecule `CC(=O)NC1(c2ccccc2)CCN(C[C@@H]2C[C@@]2(C(=O)N(C)Cc2ccc(F)cc2)c2cccc(Cl)c2)CC1` registered a Ki in data set [1] of 32 nM.

For the molecule `CC(=O)NC1(c2ccccc2)CCN(C[C@@H]2C[C@@]2(C(=O)N(C)Cc2ccc(F)cc2)c2cccc(C)c2)CC1`, the inhibitory constant (Ki) in data set [1] came to 40 nM.

`COc1cccc([C@]2(C(=O)N(C)Cc3ccc(F)cc3)C[C@H]2CN2CCC(NC(C)=O)(c3ccccc3)CC2)c1`: the Ki in data set [1] was 56 nM.

Turning to `CC(=O)NC1(c2ccccc2)CCN(C[C@@H]2C[C@@]2(C(=O)N(C)Cc2ccc(F)cc2)c2cccc(C(F)(F)F)c2)CC1`, in data set [1], affinity was put at a Ki of 210 nM.

The molecule `CC(=O)NC1(c2ccccc2)CCN(C[C@@H]2C[C@@]2(C(=O)N(C)Cc2ccc(F)cc2)c2cccc(C#N)c2)CC1` yielded a Ki in data set [1] of 1900 nM.

For the molecule `CC(=O)NC1(c2ccccc2)CCN(C[C@@H]2C[C@@]2(C(=O)N(C)Cc2ccc(F)cc2)c2ccc(F)c(F)c2)CC1`, the Ki in data set [1] worked out at 47 nM.

Regarding `CC(=O)NC1(c2ccccc2)CCN(C[C@@H]2C[C@@]2(C(=O)N(C)Cc2ccc(F)cc2)c2cc(Cl)cc(Cl)c2)CC1`, the Ki in data set [1] is 90 nM.

Consider `CC(=O)NC1(c2ccccc2)CCN(C[C@@H]2C[C@@]2(C(=O)N(C)Cc2ccc(F)cc2)c2ccc(C)c(C)c2)CC1`, for which the Ki in data set [1] came out at 7.3 nM.

Regarding `CC(=O)NC1(c2ccccc2)CCN(C[C@@H]2C[C@@]2(C(=O)N(C)Cc2ccc(F)cc2)c2ccc3c(c2)OCO3)CC1`, the affinity in data set [1] corresponds to a Ki of 140 nM.

In data set [1], `CC(=O)NC1(c2ccccc2)CCN(C[C@@H]2C[C@]2(C(=O)N(C)Cc2ccc(F)cc2)c2cccs2)CC1` registered a Ki of 93 nM.

In turn, `CC(=O)NC1(c2ccccc2)CCN(C[C@@H]2C[C@@]2(C(=O)N(C)Cc2ccc(F)cc2)c2ccsc2)CC1` had a Ki in data set [1] of 110 nM.

`CC(=O)N(C)C1(c2ccccc2)CCN(C[C@@H]2C[C@@]2(C(=O)N(C)Cc2ccccc2)c2ccc(Cl)c(Cl)c2)CC1` returned a Ki in data set [1] of 4.2 nM. This molecule also yielded a CL in data set [2] of 19 L/min. The Papp (as a rule, the rate of passage across a membrane or cell layer, normalised by area and donor concentration) in data set [3] worked out at 0.8 ×10⁻⁶ cm/s. For the same molecule, in data set [4], the Ratio is listed as 12.

The molecule `CN(Cc1ccccc1)C(=O)[C@@]1(c2ccc(Cl)c(Cl)c2)C[C@H]1CN1CCC(C(=O)N2CCCCC2)(c2ccccc2)CC1` came in with an inhibition constant (Ki) in data set [1] of 6.1 nM. The CL in data set [2] is listed as greater than 20 L/min. The Papp in data set [3] was determined as 0.3 ×10⁻⁶ cm/s. Besides, the Ratio in data set [4] is on record as 17.

Molecule `COC(=O)NC1(c2ccccc2)CCN(C[C@@H]2C[C@@]2(C(=O)N(C)Cc2ccccc2)c2ccc(Cl)c(Cl)c2)CC1` displayed a Ki in data set [1] of 1.5 nM. This molecule also yielded a CL in data set [2] of 6.3 L/min. Besides, in data set [3], the Papp is 0.4 ×10⁻⁶ cm/s. Besides, the Ratio in data set [4] is reported as greater than 100.

Regarding `CN(C)C(=O)NC1(c2ccccc2)CCN(C[C@@H]2C[C@@]2(C(=O)N(C)Cc2ccccc2)c2ccc(Cl)c(Cl)c2)CC1`, the Ki in data set [1] was 2.8 nM. The molecule further gave a CL in data set [2] greater than 20 L/min.

Consider `CNC(=O)NC1(c2ccccc2)CCN(C[C@@H]2C[C@@]2(C(=O)N(C)Cc2ccccc2)c2ccc(Cl)c(Cl)c2)CC1`, for which the Ki in data set [1] amounted to 5.6 nM. For the same molecule, in data set [2], the CL is 6.8 L/min. For the same molecule, the Papp in data set [3] is 0.6 ×10⁻⁶ cm/s. The Ratio in data set [4] amounted to 42.

Regarding `CN(Cc1ccccc1)C(=O)[C@@]1(c2ccc(Cl)c(Cl)c2)C[C@H]1CN1CCC(NC(N)=O)(c2ccccc2)CC1`, in data set [1], the Ki came out at 12 nM. Besides, the CL in data set [2] is reported as 2 L/min. Moreover, the Papp in data set [3] was found to be 0.6 ×10⁻⁶ cm/s. In data set [4], the Ratio came out at 85.

Molecule `CN(Cc1ccccc1)C(=O)[C@@]1(c2ccc(Cl)c(Cl)c2)C[C@H]1CN1CCC(c2ccccc2)(N(C)C(=O)C(N)=O)CC1` had an inhibition constant Ki in data set [1] of 3.6 nM. For the same molecule, the CL in data set [2] was 6.9 L/min. In data set [3], the Papp was 1.3 ×10⁻⁶ cm/s. Further, the Ratio in data set [4] amounted to 13.

In data set [1], `CN(Cc1ccc(F)cc1)C(=O)[C@@]1(c2ccc(Cl)c(Cl)c2)C[C@H]1CN1CCN(CCN2CCOCC2)CC1` gave a Ki of 3.7 nM. The CL in data set [2] was 4.3 L/min.

`CN(Cc1ccc(F)cc1)C(=O)[C@@]1(c2ccc(Cl)c(Cl)c2)C[C@H]1CN1CCN(S(=O)(=O)N2CCCC2)CC1` displayed a Ki in data set [1] of 5.8 nM. This molecule yielded a CL in data set [2] greater than 20 L/min.

`CN(Cc1ccc(F)cc1)C(=O)[C@@]1(c2ccc(Cl)c(Cl)c2)C[C@H]1CN1CCN(C(=O)CN2CCCCCC2)CC1`: in data set [1], affinity was put at a Ki of 8.7 nM. In data set [2], this molecule returned a CL of 15 L/min.

In data set [1], `CN(Cc1ccc(F)cc1)C(=O)[C@@]1(c2ccc(Cl)c(Cl)c2)C[C@H]1CN1CC(N2CCN(S(=O)(=O)N(C)C)CC2)C1` gave a Ki of 1.9 nM. The CL in data set [2] is 12 L/min.

As to `CC(=O)NC1(c2ccccc2)CCN(CC2CC2(C(=O)N(C)Cc2ccc(C)cc2)c2ccc(Cl)c(Cl)c2)CC1` (racemic), the Ki in data set [1] is 7.5 nM.

For `CC(=O)NC1(c2ccccc2)CCN(CC2CC2(C(=O)N(C)Cc2ccccc2Cl)c2ccc(Cl)c(Cl)c2)CC1` (racemic), the Ki in data set [1] came to 20 nM.

In data set [1], `CC(=O)NC1(c2ccccc2)CCN(CC2CC2(C(=O)N(C)Cc2ccccc2F)c2ccc(Cl)c(Cl)c2)CC1` (racemic) yielded a Ki of 18 nM.

On to `CC(=O)NC1(c2ccccc2)CCN(CC2CC2(C(=O)N(C)Cc2ccccc2C)c2ccc(Cl)c(Cl)c2)CC1` (racemic), for which the Ki in data set [1] is 5.3 nM.

`COc1ccccc1CN(C)C(=O)C1(c2ccc(Cl)c(Cl)c2)CC1CN1CCC(NC(C)=O)(c2ccccc2)CC1` (racemic): the Ki in data set [1] was determined as 14 nM.

In data set [1], `CC(=O)NC1(c2ccccc2)CCN(CC2CC2(C(=O)N(C)Cc2cccc(F)c2)c2ccc(Cl)c(Cl)c2)CC1` (racemic) came in with a Ki of 12 nM.

In data set [1], `CC(=O)NC1(c2ccccc2)CCN(CC2CC2(C(=O)N(C)Cc2cccc(Cl)c2)c2ccc(Cl)c(Cl)c2)CC1` (racemic) returned a Ki of 24 nM.

Take `COc1cccc(CN(C)C(=O)C2(c3ccc(Cl)c(Cl)c3)CC2CN2CCC(NC(C)=O)(c3ccccc3)CC2)c1` (racemic): in data set [1], the Ki is 33 nM.

Molecule `CC(=O)NC1(c2ccccc2)CCN(CC2CC2(C(=O)N(C)Cc2cccc(C(F)(F)F)c2)c2ccc(Cl)c(Cl)c2)CC1` (racemic) showed a Ki in data set [1] of 50 nM.

In data set [1], `CC(=O)NC1(c2ccccc2)CCN(CC2CC2(C(=O)N(C)Cc2ccc(Cl)cc2)c2ccc(Cl)c(Cl)c2)CC1` (racemic) registered a Ki of 11 nM.

For the molecule `COc1ccc(CN(C)C(=O)C2(c3ccc(Cl)c(Cl)c3)CC2CN2CCC(NC(C)=O)(c3ccccc3)CC2)cc1` (racemic), the Ki in data set [1] was determined as 15 nM.

In data set [1], `CC(=O)NC1(c2ccccc2)CCN(CC2CC2(C(=O)N(C)Cc2ccc(C(F)(F)F)cc2)c2ccc(Cl)c(Cl)c2)CC1` (racemic) showed a Ki of 4.6 nM.

On to `CSc1ccc(CN(C)C(=O)C2(c3ccc(Cl)c(Cl)c3)CC2CN2CCC(NC(C)=O)(c3ccccc3)CC2)cc1` (racemic), for which the affinity in data set [1], expressed as Ki, was 28 nM.

Consider `CC(=O)NC1(c2ccccc2)CCN(CC2CC2(C(=O)N(C)Cc2cccc(Cl)c2Cl)c2ccc(Cl)c(Cl)c2)CC1` (racemic), for which, in data set [1], the Ki is 24 nM.

The molecule `CC(=O)NC1(c2ccccc2)CCN(CC2CC2(C(=O)N(C)Cc2ccc(Cl)cc2Cl)c2ccc(Cl)c(Cl)c2)CC1` (racemic) yielded a Ki in data set [1] of 16 nM.

Turning to `CC(=O)NC1(c2ccccc2)CCN(CC2CC2(C(=O)N(C)Cc2ccc(Cl)c(Cl)c2)c2ccc(Cl)c(Cl)c2)CC1` (racemic), the Ki in data set [1] was 13 nM.

In the case of `CC(=O)NC1(c2ccccc2)CCN(CC2CC2(C(=O)N(C)Cc2cc(Cl)cc(Cl)c2)c2ccc(Cl)c(Cl)c2)CC1` (racemic), in data set [1], the affinity corresponds to a Ki of 23 nM.

In data set [1], `COc1ccc(CN(C)C(=O)C2(c3ccc(Cl)c(Cl)c3)CC2CN2CCC(NC(C)=O)(c3ccccc3)CC2)c(OC)c1` (racemic) came in with a Ki of 5.9 nM.

For the molecule `COc1ccc(CN(C)C(=O)C2(c3ccc(Cl)c(Cl)c3)CC2CN2CCC(NC(C)=O)(c3ccccc3)CC2)cc1OC` (racemic), in data set [1], the Ki is 67 nM.

With `COc1cc(CN(C)C(=O)C2(c3ccc(Cl)c(Cl)c3)CC2CN2CCC(NC(C)=O)(c3ccccc3)CC2)cc(OC)c1` (racemic), affinity in data set [1] was put at a Ki of 32 nM.

`CC(=O)NC1(c2ccccc2)CCN(CC2CC2(C(=O)N(C)Cc2cccs2)c2ccc(Cl)c(Cl)c2)CC1` (racemic): the Ki in data set [1] came out at 70 nM.

The molecule `CC(=O)NC1(c2ccccc2)CCN(CC2CC2(C(=O)N(C)Cc2ccsc2)c2ccc(Cl)c(Cl)c2)CC1` (racemic) came in with a Ki in data set [1] of 14 nM.
